In the NIST ThermoML archive (doi:10.1016/j.fluid.2017.09.003):

Experiment: mn = molality of the nth substance listed, in mol/kg
Details: Liquid, isochoric method

CCCCn1cc[n+](C)c1.O=S(=O)([O-])C(F)(F)F [1-butyl-3-methylimidazolium trifluoromethanesulfonate] + O=C=O
Details	molar volume [m3/mol]
303.15 K, 233.6 kPa, m2 = 0.1586	0.0002163
303.15 K, 712 kPa, m2 = 0.5016	0.0002044
303.15 K, 1209.3 kPa, m2 = 0.8577	0.0001937
303.15 K, 1706.3 kPa, m2 = 1.236	0.0001836
303.15 K, 2180.4 kPa, m2 = 1.637	0.0001742
303.15 K, 2663.3 kPa, m2 = 2.038	0.000166
303.15 K, 3188 kPa, m2 = 2.481	0.000158
313.15 K, 244.1 kPa, m2 = 0.1345	0.0002188
313.15 K, 713.2 kPa, m2 = 0.418	0.0002088
313.15 K, 1212.5 kPa, m2 = 0.7087	0.0001997
313.15 K, 1722.9 kPa, m2 = 1.029	0.0001907
313.15 K, 2194.4 kPa, m2 = 1.329	0.0001831
313.15 K, 2669.6 kPa, m2 = 1.632	0.0001761
313.15 K, 3135.3 kPa, m2 = 1.944	0.0001696
323.15 K, 239.4 kPa, m2 = 0.1102	0.0002213
323.15 K, 707.7 kPa, m2 = 0.3453	0.0002129
323.15 K, 1223.5 kPa, m2 = 0.5993	0.0002047
323.15 K, 1721.4 kPa, m2 = 0.8739	0.0001966
323.15 K, 2204.9 kPa, m2 = 1.131	0.0001897
323.15 K, 2697.2 kPa, m2 = 1.397	0.0001832
323.15 K, 3198.1 kPa, m2 = 1.707	0.0001762
333.15 K, 239.9 kPa, m2 = 0.0968	0.0002234
333.15 K, 756.2 kPa, m2 = 0.3124	0.0002157
333.15 K, 1259.5 kPa, m2 = 0.5379	0.0002083
333.15 K, 1767.4 kPa, m2 = 0.7626	0.0002015
333.15 K, 2242.8 kPa, m2 = 0.9814	0.0001953
333.15 K, 2734.2 kPa, m2 = 1.226	0.000189
333.15 K, 3236.7 kPa, m2 = 1.474	0.0001831
343.15 K, 250.3 kPa, m2 = 0.0877	0.0002253
343.15 K, 746.9 kPa, m2 = 0.2655	0.0002189
343.15 K, 1255 kPa, m2 = 0.4535	0.0002126
343.15 K, 1759 kPa, m2 = 0.6555	0.0002063
343.15 K, 2265.7 kPa, m2 = 0.8561	0.0002004
343.15 K, 2732.5 kPa, m2 = 1.072	0.0001946
343.15 K, 3216 kPa, m2 = 1.276	0.0001895

CCCCCC[n+]1ccn(C)c1.O=S(=O)([N-]S(=O)(=O)C(F)(F)F)C(F)(F)F + O=C=O
Details	molar volume [m3/mol]
303.15 K, 228.1 kPa, m2 = 0.1549	0.0003078
303.15 K, 400.5 kPa, m2 = 0.277	0.0002962
303.15 K, 642.1 kPa, m2 = 0.4471	0.0002815
303.15 K, 786.2 kPa, m2 = 0.5432	0.0002738
303.15 K, 1036.5 kPa, m2 = 0.726	0.0002604
303.15 K, 1399.2 kPa, m2 = 0.9896	0.000243
303.15 K, 1689 kPa, m2 = 1.194	0.0002316
303.15 K, 1806.5 kPa, m2 = 1.29	0.0002265
303.15 K, 2065.3 kPa, m2 = 1.48	0.000217
303.15 K, 2289.9 kPa, m2 = 1.65	0.0002093
303.15 K, 2463.9 kPa, m2 = 1.782	0.0002037
303.15 K, 2819.3 kPa, m2 = 2.069	0.0001926
303.15 K, 3076.9 kPa, m2 = 2.267	0.0001856
303.15 K, 3555.5 kPa, m2 = 2.65	0.0001736
313.15 K, 337.1 kPa, m2 = 0.1947	0.0003066
313.15 K, 699.4 kPa, m2 = 0.4069	0.0002879
313.15 K, 1209.5 kPa, m2 = 0.7242	0.0002644
313.15 K, 1653.6 kPa, m2 = 1.006	0.0002471
313.15 K, 2111.8 kPa, m2 = 1.285	0.0002306
313.15 K, 2538.3 kPa, m2 = 1.615	0.0002177
313.15 K, 3188.6 kPa, m2 = 2.11	0.0001995
323.15 K, 465.7 kPa, m2 = 0.2272	0.0003063
323.15 K, 850.7 kPa, m2 = 0.4281	0.0002889
323.15 K, 1323.9 kPa, m2 = 0.6731	0.0002706
323.15 K, 1708.8 kPa, m2 = 0.8789	0.0002573
323.15 K, 2180.2 kPa, m2 = 1.152	0.0002419
323.15 K, 2704.6 kPa, m2 = 1.345	0.0002273
323.15 K, 3105.7 kPa, m2 = 1.546	0.0002172
333.15 K, 245.6 kPa, m2 = 0.1044	0.0003209
333.15 K, 519.1 kPa, m2 = 0.2209	0.0003096
333.15 K, 894.3 kPa, m2 = 0.3855	0.0002952
333.15 K, 1364.2 kPa, m2 = 0.6046	0.0002782
333.15 K, 1849.2 kPa, m2 = 0.8295	0.0002632
333.15 K, 2312.2 kPa, m2 = 1.051	0.0002501
333.15 K, 2799.2 kPa, m2 = 1.3	0.0002373
343.15 K, 474.1 kPa, m2 = 0.1783	0.0003165
343.15 K, 952.8 kPa, m2 = 0.3503	0.0003002
343.15 K, 1440.2 kPa, m2 = 0.553	0.0002849
343.15 K, 1937.6 kPa, m2 = 0.7557	0.0002707
343.15 K, 2453.7 kPa, m2 = 0.974	0.0002573
343.15 K, 2938.6 kPa, m2 = 1.181	0.0002461
343.15 K, 3446.9 kPa, m2 = 1.424	0.0002344
353.15 K, 502 kPa, m2 = 0.1643	0.0003208
353.15 K, 987.3 kPa, m2 = 0.3338	0.0003053
353.15 K, 1440.2 kPa, m2 = 0.4916	0.0002925
353.15 K, 1907.3 kPa, m2 = 0.6717	0.0002794
353.15 K, 2419.6 kPa, m2 = 0.8598	0.0002671
353.15 K, 2888.3 kPa, m2 = 1.037	0.0002567

S [hydrogen sulfide] + CCCCn1cc[n+](C)c1.O=S(=O)([O-])C(F)(F)F
Details	molar volume [m3/mol]
303.15 K, 172.6 kPa, m1 = 0.5717	0.0001972
303.15 K, 339.1 kPa, m1 = 1.141	0.000178
303.15 K, 491.8 kPa, m1 = 1.715	0.0001633
303.15 K, 691.5 kPa, m1 = 2.517	0.0001472
303.15 K, 857 kPa, m1 = 3.192	0.0001371
303.15 K, 1016.5 kPa, m1 = 3.857	0.0001282
303.15 K, 1178.1 kPa, m1 = 4.512	0.0001212
303.15 K, 1368.5 kPa, m1 = 5.449	0.0001129
303.15 K, 1494.2 kPa, m1 = 6.127	0.000108
313.15 K, 169.3 kPa, m1 = 0.4237	0.0002046
313.15 K, 392.6 kPa, m1 = 1.017	0.0001836
313.15 K, 605 kPa, m1 = 1.634	0.0001669
313.15 K, 813.7 kPa, m1 = 2.295	0.0001529
313.15 K, 1021.5 kPa, m1 = 3.03	0.0001406
313.15 K, 1244.6 kPa, m1 = 3.892	0.0001294
313.15 K, 1455.3 kPa, m1 = 4.807	0.00012
313.15 K, 1592.1 kPa, m1 = 5.49	0.0001142
323.15 K, 188 kPa, m1 = 0.3783	0.000208
323.15 K, 418.4 kPa, m1 = 0.874	0.0001897
323.15 K, 647.6 kPa, m1 = 1.409	0.0001741
323.15 K, 1041.4 kPa, m1 = 2.42	0.0001522
323.15 K, 1294 kPa, m1 = 3.138	0.0001407
323.15 K, 1501.2 kPa, m1 = 3.819	0.0001319
323.15 K, 1614.4 kPa, m1 = 4.192	0.0001272
333.15 K, 196.6 kPa, m1 = 0.3257	0.0002118
333.15 K, 459.2 kPa, m1 = 0.7804	0.0001944
333.15 K, 705.7 kPa, m1 = 1.237	0.0001803
333.15 K, 907.8 kPa, m1 = 1.635	0.00017
333.15 K, 1176.8 kPa, m1 = 2.188	0.0001581
333.15 K, 1400.8 kPa, m1 = 2.685	0.0001492
333.15 K, 1570.7 kPa, m1 = 3.114	0.0001426
343.15 K, 207.6 kPa, m1 = 0.279	0.0002154
343.15 K, 456.9 kPa, m1 = 0.6403	0.000201
343.15 K, 706.7 kPa, m1 = 1.021	0.0001882
343.15 K, 923.5 kPa, m1 = 1.369	0.0001783
343.15 K, 1176.5 kPa, m1 = 1.798	0.0001679
343.15 K, 1391.1 kPa, m1 = 2.179	0.0001599
343.15 K, 1632 kPa, m1 = 2.646	0.0001515
